# Measurements published in patent US8618080B2, “Immunomodulatory compounds and treatment of diseases related to an overproduction of inflammatory cytokines” (OM Pharma, priority 2006, dated 2013).
# Key:
# [1] = tested on: LACK-sensitized and challenged Balb/c ByJ mice; test: LACK-induced allergic asthma model, prophylactic i.p. treatment; type: in vivo; settings: 1 mg/Kg i.p. prophylactic
# Procedure: Females Balb/c ByJ mice of 6-week old were purchased from the Centre d'Elevage Janvier (CERJ, Le Genest-St-lsle, France). All the mice were sensitised by 2 i.p. injections of 10 μg LACK protein precipitated in 2 mg of Alum (PerBio Science France SAS, Brebières, France) at days 0 and 7.
# Animals were divided in groups, as follow: • LACK-sensitized and saline-challenged mice (4 mice) • LACK-sensitized and challenged mice (8 mice) • OM-197-MP-AC-treated, LACK-sensitized and challenged mice (8 mice)
# Mice of the third group were treated intraperitoneally with 1 mg/Kg (20 μg per mouse) of OM-197-MP-AC. Mice were treated on days: −1, 1, 2, 3, 6, 8, 9, 10 and 11. From day 16 to day 21, mice of groups B and C were exposed to a daily 20-min aerosol challenge of a LACK solution (0.15%) whereas mice of the saline group received a saline solution as control.
# AHR was measured for all the mice one day after the last antigen challenge by whole-body plethysmography (Emka) in response to increasing concentrations (6-25 mg/ml) of inhaled methacholine (acetyl methyl choline, Sigma). AHR is expressed as enhanced pause (Penh, see FIG. 4), a dimensionless parameter perfectly correlated to airway compliance and resistance calculated value, which correlates with measurement of airway resistance, impedance, and intrapleural pressure.
# All the mice were bled by heart puncture one day after the last aerosol. Total IgE were quantified by ELISA using rat EM-95 anti-IgE mAbs as coating antibody and rat anti-IgE mAbs coupled to biotin as second antibody as described (Julia et al., 2002).
# Individual mice were bled and a canula was inserted into their trachea. Lungs were washed 3 times with 1 ml of warmed PBS. Cells were washed with PBS, resuspended in 300 μl, and counted using a Burker-Türk chamber. For differential BAL cell counts, cytospin preparations were made and stained with Wright/Giemsa coloration. The respective numbers of neutrophils, eosinophils, and other mononuclear cells were determined by microscopic examination. Only the percentage of eosinophils (FIG. 5) is reported here.
# To investigate lung cytokine contents of treated and untreated animals, protein extracts were prepared from lungs of LACK-sensitized and PBS-challenged wt mice (group “Control”), LACK-sensitized and challenged wt mice (group Asthma”), OM-197-MP-AC-treated wt mice (group “OM-197”). IL-4, IL-5, IL-13 contents were analyzed by multiplex analysis using FACSArray.
# Treated or untreated LACK-sensitized mice (see above) were next challenged with daily aerosol of LACK for five consecutive days. One day after the last aerosol, AHR was measured by whole-body plethysmography in response to increasing concentrations of aerosolized methacholine.
# To further investigate the effects of prophylactic OM-197-MP-AC on allergic airway inflammation, proteins were extracted from lungs of both treated and untreated WT mice, and cytokines known to play a important role in asthma (IL-4, IL-5 and IL-13) were quantified by multiplex analysis using CBA array beads and FACSarray. Data were normalized to the total quantity of proteins and given as pg of cytokine per mg of lung proteins.
# NOD mice = test: Occurrence of diabetes in Non Obese Diabetic (NOD) mice; type: in vivo; settings: for Occurrence of diabetes versus control (Kaplan-Meier, logrank): 10 weeks
# Procedure: Group of 10 female 6-week old NOD mice were treated during 10 weeks with either 0.01, 0.1, and 1 mg/kg of OM-197-MP-AC. A group of 6 female MOD mice receiving 200 μl PBS i.p. 3 times a week was used as control.
# In this series of experiments, the treatment was continued until the mice have reached 16 weeks of age. This is the point in time when control animals start developing overt diabetes.
# Results in terms of diabetes incidence were compared to those obtained in control animals. Diabetes was checked once a week by glucosuria testing, using test strips (Glukotest®, Roche, France), twice a week when diabetes appeared. Diabetes was confirmed by evaluating glycemia (>3 mg/ml) with test strips (Glucotrend®).
# The occurrence of diabetes in the different experimental groups is plotted (see FIG. 15) using the Kaplan-Meier method, i.e. non parametric cumulative survival plot. The statistical comparison between the curves is performed using the logrank (Mantel-Cox) test which provided the corresponding χ2 values.
# FIG. 15: Occurrence of diabetes in NOD mice. Mice were treated i.p. with either PBS (6 animals), or the 3 indicated doses of OM-197-MP-AC (3 groups of 10 animals). Diabetes was checked once a week by glucosuria testing (Glukotest), and twice a week when diabetes appeared. Diabetes was confirmed by evaluating glycemia (>3 mg/ml) with test strips (Glucotrend®). The occurrence of diabetes in the different experimental groups is plotted (see FIG. 15) using the Kaplan-Meier method, i.e. non parametric cumulative survival plot. The statistical comparison between the curves is performed using the logrank (Mantel-Cox) test which provided the corresponding χ2 values: OM-197-MP-AC 1 mg/kg p=0.321; 0.1 mg/kg=0.0543
# [2] = lung protein extracts, CBA/FACSArray
structure (smiles),measurement,setting,value
"CCCCCCCCCCCC(=O)O[C@H](CCCCCCCCCCC)CC(=O)N[C@@H](CCOP(=O)(O)O)C(=O)NCCC[C@H](COC(=O)CCCCCN)NC(=O)C[C@H](O)CCCCCCCCCCC [OM-197-MP-AC, (3S, 9R)-3-[(R)-3-dodecanoyloxytetradecanoylamino]-4-oxo-5-aza-9-[(R)-3-hydroxytetradecanoylamino]-decan-1, 10-diol 1-dihydrogenophosphate 10-(6-aminohexanoate)]","Eosinophils in BAL, less than untreated control mice",[1],3 times less
same,"Total IgE in sera, less than untreated sensitized, challenged mice",[1]; ELISA,2 fold less
same,Amount of KC produced in lungs,[1]; lung protein extracts,reduced by half
same,"Lung IFN-γ, less than untreated mice",[1]; lung protein extracts,2 times less
same,"Lung IL-6, less than untreated mice",[1]; lung protein extracts,1.5 times less
same,"Lung MCP-1, less than untreated animals",[1]; lung protein extracts,1.8 times less
same,"Lung IL-4, less than untreated mice",[1]; [2],5 times less
same,"Lung IL-5, less than untreated mice",[1]; [2],5 times less
same,"Lung IL-13, less than untreated mice",[1]; [2],3.5 times less
same,"Airway hyperresponsiveness (AHR, Penh) to methacholine",[1]; whole-body plethysmography one day after last challenge,did not exhibit AHR
same,"Occurrence of diabetes versus control (Kaplan-Meier, logrank)",NOD mice; 0.1 mg/kg i.p.,positive trend
same,Animals exhibiting diabetes,"NOD mice; 0.3 mg/kg, week 27, another experiment",27%
same,"Occurrence of diabetes versus control (Kaplan-Meier, logrank)",NOD mice; 1 mg/kg i.p.,significantly active
